{
  "source": "patent US9394544B2",
  "about": "“Ameliorating oxidative stress in neurodegenerative disease via Nox1 targeting” (University of Central Florida Research Foundation, Inc., priority 2013, dated 2016)",
  "key": {"[1]": {"system": "N27 cells", "assay": "NBT assay of 6-OHDA-mediated ROS generation in N27 dopaminergic cells", "type": "cell-based, rat", "conditions": "6 h; for 6-OHDA-mediated ROS generation (NBT assay): inhibitor pre-treatment 30 min (DPI 0.1, 0.5, 1.0 μM; apocynin 0.1, 1.0, 10, 100 μM), then 6-OHDA 100 μM", "experimental": "N27 cells were pre-treated with various concentrations of DPI (0.1, 0.5, and 1.0 μM) for 30 min and then 6-OHDA (100 μM) was added. Superoxide was measured using the nitroblue tetrazolium (NBT) assay at 6 h post 6-OHDA.\nCells were grown in RPMI 1640 containing 10% FBS, 100 IU/1 penicillin, and 10 g/ml streptomycin at 37° C. with 5% CO2 supply in humidified atmosphere. For experiments, the cells were plated on polystyrene tissue culture dishes at a density of 2×10^4 cells/well in 96-well culture plates, 1×10^6 cells/well in 24-well culture plates, 1×10^6 cells/well in 6-well culture plates, or 2×10^6 cells/100 mm plate. After 24 h, the cells were fed with fresh medium and treated with 6-OHDA and/or other drugs.\n6-OHDA treated cells were incubated for 1 h at 37° C. with a filtered solution of 0.3 mg/ml of NBT in complete medium. The cells were washed once with PBS and fixed with 0.4% paraformaldehyde for light microscopy. To quantify NBT precipitation, cells were washed twice with 70% methanol and fixed for 5 min in 100% methanol. After the wells were allowed to dry in the air, the formazan is solubilized with 120 μl 2M K OH and 140 μl DMSO. The OD was read in an ELISA plate reader at 590 nm."}, "[2]": {"system": "Nox1", "assay": "Nox1 expression (RT-PCR, immunoblot) in N27 cells exposed to toxins", "type": "cell-based, rat", "from_the_text": "The NADPH oxidase is a multi-subunit enzyme that consists of the catalytic subunits (Nox isoforms) together with the regulatory subunits including p22phox, p47phox, p40phox, p67phox, Nox organizer 1 (Noxo1), Nox activator 1 (Noxa1), and small GTPase Rac1. In order to test whether dopaminergic (DA) cells are equipped with the NOX components, N27, a well-established rat DA cell line was examined (Prasad et al. 1994). The mRNAs encoding each Nox isoform and regulatory subunits were detected using RT-PCR. Since transcriptional induction of Nox1 and Nox4 has already been reported in several tissues under a variety of stimuli, transcripts were determined in both nontreated and 6-hydroxydopamine (6-OHDA), a DA neurodegenerative compound, treated DA cells. ROS generation as induced by 6-OHDA (100 μM) and subsequent cell death was observed. All Nox isoforms (Nox1, Nox2, Nox4, Duox1 and Duox2) except Nox3 and Nox5 were detected (FIG. 1A). […] Mitochondria, which have long been considered as a major source of ROS, play a key role in Nox1-mediated superoxide generation (Desouki et al. 2005). […] Cytoplasmic regulatory subunits including p47phox, Noxa1, and Noxo1 were constitutively expressed in DA cells as well (FIG. 1A). Noxa1 and Noxo1 are homologues of p67phox and p47phox, respectively. They are involved in Nox1-mediated superoxide generation (Banfi et al. 2003, Geiszt et al. 2003). […] The activation of a small GTPase Rac1 is indispensable for Nox1 and Nox2 activation (Bokoch 2002). GTP-bound active Rac1 was measured in DA cells treated with 6-OHDA for various duration from 1 h to 6 h.\nTotal RNA was extracted from N27 cells using Trizol reagent (Invitrogen, Carlsbad, Calif.). Reverse transcription was performed for 1 h at 42° C. with 1 μg of total RNA using 20 unit/μl of AMV reverse transcriptase (Roche Applied Science, Indianapolis, Ind.), and oligo-p(dT)15 as a primer. The samples were then heated at 99° C. for 5 min to terminate the reaction. The cDNA obtained from 1 μg total RNA was used as a template for PCR amplification. Oligonucleotide primers were designed based on Genebank entries for rat NOX1 (sense, 5′-[…]-3′ SEQ ID NO. 1; antisense, 5′-[…]-3′ SEQ ID NO. 2), rat NOX2 (sense, 5′-[…]-3′ SEQ ID NO. 3; antisense, 5′-[…]-3′ SEQ ID NO. 4), rat NOX4 (sense, 5′-[…]-3′ SEQ ID NO. 5; antisense, 5′-[…]-3′ SEQ ID NO. 6), rat NOXA1 (sense, 5′-[…]-3′ SEQ ID NO. 7; antisense, 5′-[…]-3′ SEQ ID NO. 8), rat NOXO1 (sense, 5′-[…]-3′ SEQ ID NO. 9; antisense, 5′-[…]-3′ SEQ ID NO. 10), rat p47 (sense, 5′-[…]-3′ SEQ ID NO 11; antisense, 5′-[…]-3′ SEQ ID NO. 12), rat Duox1 (sense, 5′-[…]-3′ SEQ ID NO. 13; antisense, 5′-[…]-3′SEQ ID NO. 14), rat Duox2 (sense, 5′-[…]-3′ SEQ ID NO. 15; antisense, 5′-[…]-3′ SEQ ID NO. 16) and rat GAPDH (sense, 5′-[…]-3′ SEQ ID NO. 17; antisense, 5′-[…]-3′ SEQ ID NO. 18). PCR mixes contained 10 μl of 2×PCR buffer, 1.25 mM of each dNTP, 10 pmol of each forward and reverse primer, and 2.5 units of Taq polymerase in the final volume of 20 μl. Amplification was performed in 35 cycles at 60° C., 30 sec; 72° C., 1 min; 94° C., 30 sec. After the last cycle, all samples were incubated for an additional 10 min at 72° C. for final extension step. PCR fragments were analyzed on 1.2% agarose gel in 0.5×TAE containing ethidium bromide. Amplification of GAPDH, a relatively invariant internal reference RNA, was performed in parallel, and cDNA amounts were normalized against GAPDH mRNA levels. The primer set specifically recognized only the gene of interest as indicated by amplification of a single band of expected size. […]"}, "[3]": {"system": "Nox1", "assay": "Nox1 expression in SNDA neurons of MPTP-treated mice", "type": "in vivo"}, "[4]": {"system": "Nox1", "assay": "Nuclear localization of Nox1-EGFP in N27 cells (confocal microscopy)", "type": "cell-based, rat", "conditions": "N27 cells expressing Nox1-EGFP; 6-OHDA 50 μM 6 h, rotenone 5 μM 18 h", "from_the_text": "The observation that Nox1 was induced by a variety of oxidative stimuli in vitro led one to test Nox1 expression in the rat substantia nigra DA (SNDA) neurons administered with 6-OHDA. […] Neither astrocytes nor microglia expressed Nox1, as verified by co-immunostaining of Nox1 with GFAP (astrocytes) or CD11b (microglia) (FIG. 3B). Increased Nox1 transcript was found in the SN as shown by in situ hybridization (FIG. 3C). […] As early as 3 days post 6-OHDA injection, Nox1 expression was increased in the nucleus and in the cytoplasm of DA neurons (FIG. 4A). […] Nuclear expression of the Nox1/Rac1 complex was further analyzed in N27 cells after treatment with 6-OHDA. First, activated Rac1 was detected by immunoprecipitation of nuclear extracts of N27 cells after a 24 h treatment with 6-OHDA. […] Next, it was established that N27 cells stably expressing Nox1 tagged with EGFP at the C-terminus. […] To examine whether nuclear translocation of Nox1 in dopaminergic cells is observed under different conditions that cause dopaminergic neuronal death, mitochondrial respiratory complex inhibitor, rotenone, was tested."}},
  "note": "Where two headings read alike, the source gives them in different places.",
  "data": [
    {"compound": "c1ccc2c(c1)[I+]c1ccccc1-2", "note": "[DPI, diphenyleneiodonium]", "values": [
      {"measurement": "lowest concentration significantly reducing 6-OHDA-mediated ROS generation", "setting": "[1]; 30 min pre-treatment, 6-OHDA 100 μM", "value": 0.1, "unit": "µM"},
      {"measurement": "6-OHDA-mediated ROS generation (NBT assay)", "setting": "[1]", "value": "significantly reduced"}
    ]},
    {"compound": "N#CC(C#N)=NNc1ccc(OC(F)(F)F)cc1", "note": "[FCCP]", "values": [
      {"measurement": "mRNA and protein levels of Nox1", "setting": "[2]", "value": "elevated"}
    ]},
    {"compound": "OO", "note": "[H2O2]", "values": [
      {"measurement": "mRNA and protein levels of Nox1", "setting": "[2]; N27 cells", "value": "increase"}
    ]},
    {"compound": "CN1CC=C(c2ccccc2)CC1", "note": "[MPTP, 1-methyl-4-phenyl-1,2,3,6-tetrahydropyridine]", "values": [
      {"measurement": "Nox1 expression in the SNDA neurons", "setting": "[3]", "value": "Increased Nox1 expression"}
    ]},
    {"compound": "COc1cc(C(C)=O)ccc1O", "note": "[apocynin]", "values": [
      {"measurement": "6-OHDA-mediated ROS generation (NBT assay)", "setting": "[1]", "value": "significantly diminished"}
    ]},
    {"compound": "CC(C)(C)c1ccc(CSc2cnn(C(C)(C)C)c(=O)c2Cl)cc1", "note": "[pyridaben]", "values": [
      {"measurement": "mRNA and protein levels of Nox1", "setting": "[2]; N27 cells", "value": "elevated"}
    ]},
    {"compound": "C=C(C)[C@H]1Cc2c(ccc3c2O[C@@H]2COc4cc(OC)c(OC)cc4[C@@H]2C3=O)O1", "note": "[rotenone]", "values": [
      {"measurement": "mRNA and protein levels of Nox1", "setting": "[2]; N27 cells", "value": "elevated"},
      {"measurement": "nuclear localization of Nox1", "setting": "[4]", "value": "led to nuclear localization of Nox1"}
    ]},
    {"compound": "antimycin A", "values": [
      {"measurement": "mRNA and protein levels of Nox1", "setting": "[2]; N27 cells", "value": "elevated"}
    ]}
  ]
}
